According to patent US12642756B2, “Leave-on composition” (Firmenich SA, priority 2020, dated 2026):

Experiments:
[1] = Paneling of released fragrance alcohols on glass slides (sensory panel)
Description: Evaporation kinetics using 76 mm×51 mm glass slides was carried out. Prazitherm precision hotplate was pre-heated to 32 degrees Celsius for 30 minutes. Three glass slides were placed on the precision hotplate. Each glass slide is labeled with a unique code so that its identity is unknown to the panelists. Using a Gilson Microman M25 positive displacement pipette, […] of 0.1 LU lipase solution was dosed directly to the center of one of the glass slides. Then 20 μl of 1% (2E,6Z)-nona-2,6-dien-1-yl hexadecanoate was dosed very slowly to the lipase droplet. Once all the sample solution was applied onto the glass slide, the applied glass slide was evaporated on the precision hotplate for 4 hours at 32 degrees Celsius. Sample preparation for 1% (Z)-3-hexen-1-yl hexadecanoate solution and 1% 3,7-dimethyl-2,6-octadien-1-yl hexadecanoate solution were done the same way. Sample preparations for all three solutions were repeated for duplicates to replace each glass slide twice during the sensory panel period—the limit for a glass slide sample set (with 3 different glass slide samples) was 10 evaluations. At the 4-hour time interval, a spray bottle filled with deionized water was primed and then water was sprayed directly onto each glass slide once. One spray was enough to cover the glass slide. All glass slides were allowed to sit for 10 minutes before the sensory panel so the water was absorbed by the evaporated mixtures to represent humidity on skin. For evaluation, the panelist picks up the treated glass slides, smells the center and rates the intensity of each slide on an evaluation sheet.
In one test, the panelists rated odor intensity on a scale of 1 to 7 for each glass slide evaluated under release by the hydrolase at time 4 hours. The second approach was the so-called forced choice where panelists were forced to select the most intense out of the three […] after release with the Hydrolase at 4 hours at 0.1 LU/ml.

[2] = tested on: Hydrolase (Lipase solution 0.100 LU/ml); experiment: Fragrance evolution on Tzero lids (dynamic headspace), palmitate esters; type: biochemical
Description: To further investigate the release kinetics of palmitate esters in the presence of hydrolases, an in-vitro assay measuring the functional perfume ingredient in the gaseous phase was devised.
Three palmitate esters releasing respectively (2E,6Z)-nona-2,6-dien-1-ol (corresponding to invention's compound) and 3,7-dimethyl-2,6-octadien-1-ol (corresponding to comparative compound) were tested in the presence of physiologically relevant concentration of Hydrolase (0.1 LU/ml) as follows. 2.5 ul Lipase solution (0.100 LU/ml) was added to Tzero Lids TA [Part no. 901671.901] crucibles. 2.5 ul of 0%, […], 0.1%, […] and 1% solution in ethanol of palmitate esters were added to the same crucibles and placed on preheated precision hotplate to 32C. Additional aliquots of 2.5 ul water were added to the crucibles at 1 h and 4 h to simulate humidity on skin and facilitate hydrolysis. The crucibles were transferred to 20 ml headspace vials after […] at 32C.
Analysis performed by Dynamic Headspace using Tenax TA trap outlined as follows. GC-MS-DHS analyses were performed on an Agilent Gas Chromatograph system 7890B coupled to an Agilent Mass Selective Detector 5977B and equipped with a Gerstel MPS autosampler. […]

[3] = tested on: Hydrolase (Lipase solution 0.100 LU/ml); experiment: Fragrance evolution on Tzero lids (dynamic headspace) in a personal care base; type: biochemical; conditions: day cream base O/W emulsion with 1 wt% compound, absence of hydrolase (water control), 32C, 4 hours
Description: To confirm fragrance release in presence of personal care base, personal care base was formulated with invention's compound and analyzed by an in-vitro assay measuring the functional perfume ingredient in the gaseous phase.
Testing was done in the presence of physiologically relevant concentration of Hydrolase (0.1 LU/ml) as follows. […] 901671.901] crucibles. 2.5 ul of personal care base with (2E,6Z)-nona-2,6-dien-1-yl hexadecanoate was added to the same crucibles and placed on preheated precision hotplate to 32C. Additional aliquots of 2.5 ul water were added to the crucibles at 1 h and 4 h to simulate humidity on skin and facilitate hydrolysis. The crucibles were transferred to 20 ml headspace vials after 4 hours at 32C.
Analysis performed by Dynamic Headspace using Tenax TA trap outlined as follows. GC-MS-DHS analyses were performed on an Agilent Gas Chromatograph system 7890B coupled to an Agilent Mass Selective Detector 5977B and equipped with a Gerstel MPS autosampler. Additionally equipment of automated Gerstel Dynamic Headspace System, ATEX air sampling tube gripper for 20 mL headspace vials with a metal screw cap (preassembled with 1.3 mm PTFE septa) and Gerstel CIS 4C cryostatic cooling device CCD2 (Inlet 2) mounted with Gerstel TDU2 thermal desorption unit. […]

[4] = tested on: lipase enzyme (Enzyme Innovation Addclean LP L); experiment: Reaction rate measurement in solution in the presence of a hydrolase (GC/MS); type: biochemical
Description: The release kinetics of 3,7-dimethyl-2,6-octadien-1-yl hexadecanoate (comparative compound) and (2E,6Z)-nona-2,6-dien-1-yl hexadecanoate (invention's compound) in the presence of a hydrolase were compared.
In order to compare the reaction rate of the esters, the amount of 3,7-dimethyl-2,6-octadien-1-yl hexadecanoate and (2E,6Z)-nona-2,6-dien-1-yl hexadecanoate and the amount of ethyl hexadecanoate over time were measured by GC/MS. The ethyl hexadecanoate was formed by the reaction between the hexadecanoic acid released and the ethanol.
Enzyme Solution Preparation: The lipase enzyme source used was Enzyme Innovation Addclean LP L at an activity of 20000 Lipase Units/g. A stock solution of 100 LU/ml was prepared and diluted in serial dilution to working concentrations as follows:
The solutions comprising 3,7-dimethyl-2,6-octadien-1-yl hexadecanoate or (2E,6Z)-nona-2,6-dien-1-yl hexadecanoate (also called palmitate ester solutions) were prepared by dissolving in ethanol to 5% by weight. These were subsequently diluted to working conditions of the experiment.
In a 2 ml Agilent GC vial (Agilent 5183-2068), 50 ul of 100 LU/ml solution was added with a micropipette. 100 ul deionized water was added to ensure continued hydrolysis. Samples to were prepared for each time condition, replicate, and palmitate ester solutions of interest because the reaction will be stopped and only measured once at 0 hours, 0.5 hours and 1 hour. […]
The palmitate esters were prepared by dissolving in ethanol to 5% by weight (stock). Palmitate ester solution was further diluted to 0.2% and 50 ul added to all sample vials above and recorded as time zero. […] Samples were analyzed by GC/MS direct injection methodology as follows.
GC-MS analyses were performed on an Agilent Gas Chromatograph system 7890B coupled to an Agilent Mass Selective Detector 5977B and equipped with a Gerstel MPS autosampler or equivalent. […] External calibration curves of (2E,6Z)-nona-2,6-dien-1-yl hexadecanoate and 3,7-dimethyl-2,6-octadien-1-yl hexadecanoate were prepared at 10-500 ppm was prepared and sample signal quantified in ppm.

[5] = glass slide, 0.1 LU/ml lipase, 4 hours

| Compound | odor intensity rated by panelists on a scale of 1 to 7 ([1]; 1% solution on glass slide, 0.1 LU/ml lipase, 4 hours at 32 degrees Celsius, versus the two other hexadecanoates (FIG. 6)) | perception / impression by the panelists [1, 5] | forced choice: panelists who selected the sample as the most intense ([1]; glass slide, Hydrolase 0.1 LU/ml, 4 hours, three esters compared (FIG. 7)) | rate of release of fragrance material into headspace ([2]; Hydrolase 0.1 LU/ml, 32C, 4 hours, on Tzero lids (FIG. 3)) | release of (2E,6Z)-nona-2,6-dien-1-ol in headspace from personal care base [3] | total rate of lipase-catalyzed reaction ([4]; compared with 3,7-dimethyl-2,6-octadien-1-yl hexadecanoate) | concentration of the ester in solution in function of time ([4]; lipase 100 LU/ml solution, 32C, 0, 0.5 and 1 hour, GC/MS, compared with 3,7-dimethyl-2,6-octadien-1-yl hexadecanoate (FIG. 1)) | release of the alcohol, confirmed by increase of ethyl hexadecanoate ([4]; lipase, ethanol present, 32C, up to 1 hour, compared with 3,7-dimethyl-2,6-octadien-1-ol (FIG. 2)) | release rate compared with 3,7-dimethyl-2,6-octadien-1-yl hexadecanoate ([2]; stated in Example 6, test not named) |
| --- | --- | --- | --- | --- | --- | --- | --- | --- | --- |
| CC/C=C\CC/C=C/COC(=O)CCCCCCCCCCCCCCC [(2E,6Z)-nona-2,6-dien-1-yl hexadecanoate] | significantly more intense | the most intense impression | 20/21 | higher rate than 3,7-dimethyl-2,6-octadien-1-yl hexadecanoate | no release is observed | higher total rate of lipase-catalyzed reaction | decreased more rapid than the concentration of 3,7-dimethyl-2,6-octadien-1-yl hexadecanoate | faster release of (2E,6Z)-nona-2,6-dien-1-ol compared to 3,7-dimethyl-2,6-octadien-1-ol | – |
| CC/C=C\CCOC(=O)CCCCCCCCCCCCCCC [(Z)-3-hexen-1-yl hexadecanoate, reference compound] | – | not well perceived by the panelists | – | – | – | – | – | – | release faster than 3,7-dimethyl-2,6-octadien-1-yl hexadecanoate |
